Data reported in publication PMC10552892, “Ebselen oxide and derivatives are new allosteric HER2 inhibitors for HER2‐positive cancers” (Molecular Oncology, 2023).

What was measured:
BT474 [1] = assay: Soft agar anchorage-independent growth, BT474; assay type: cell-based, human; conditions: 10 μM
Procedure: A bottom layer of 0.8% agarose in DMEM supplemented with 20% FBS and penicillin/streptomycin was added to 24‐well plates before seeding 25.10^3 cells per well in a 0.6% agarose top layer. Cells were treated with a vehicle or with 10 μM ebselen oxide or derivatives. Treatments were renewed 3 times a week. After 6 weeks, colonies were visualized with a phase‐contrast microscope and their number and size were quantified using IMAGEJ software.
(§1) Fig. 2 Ebselen oxide inhibits HER2 activation, cell proliferation, and anchorage‐independent growth of HER2^+ breast cancer cells. […] Blot and quantification of a representative experiment are shown out of 4 (A), 5 (B), or 2 (C) independent experiments. (D–F) Proliferation curves of HER2‐positive (SKBR3, D or BT474, E) or HER2‐negative (MDA‐MB‐231, F) breast cancer cell lines treated with vehicle or 10 μM ebselen oxide assessed by MTT assay. […] (G–I) Anchorage‐independent growth of SKBR3 (G), BT474 (H), or MDA‐MB‐231 (I) cells treated with vehicle or 10 μM ebselen oxide. […] Scale bars are […].

BT474 [2] = assay: Incucyte proliferation, single agents and combinations, BT474; assay type: cell-based; conditions: Homo sapiens, BT-474, 96 h; read-out: Reduction/inhibition of cell proliferation
Procedure: (A–C) Proliferation curves of HER2‐positive (SKBR3, A; BT474, B; NCI‐N87, C) cancer cell lines treated or not with ebselen oxide (10 μM), lapatinib (10–1000 nM), or combination of these agents, as indicated. Proliferation was assessed overtime by Incucyte during 4 days. Data are mean ± SD (n = 8–12) of a representative experiment out of 4 (A), 3 (B), or 2 (C) independent experiments. […] Proliferation was assessed by Incucyte during 4 days. […] Scale bars are […].

SKBR3 = assay: MTT proliferation assay, SKBR3; assay type: cell-based, human; conditions: 10 μM
Procedure: as §1

[3] = biological target: T1, HER2 (pY1248) in MDA-MB-231 (Homo sapiens, UniProt P04626); assay: HER2 activation in MDA-MB-231 cells, western/dot blot; assay type: cell-based; conditions: MDA-MB-231, low HER2 expression
T1 construct: host or cells: MDA-MB-231
T1 sequence (P04626 23-1255): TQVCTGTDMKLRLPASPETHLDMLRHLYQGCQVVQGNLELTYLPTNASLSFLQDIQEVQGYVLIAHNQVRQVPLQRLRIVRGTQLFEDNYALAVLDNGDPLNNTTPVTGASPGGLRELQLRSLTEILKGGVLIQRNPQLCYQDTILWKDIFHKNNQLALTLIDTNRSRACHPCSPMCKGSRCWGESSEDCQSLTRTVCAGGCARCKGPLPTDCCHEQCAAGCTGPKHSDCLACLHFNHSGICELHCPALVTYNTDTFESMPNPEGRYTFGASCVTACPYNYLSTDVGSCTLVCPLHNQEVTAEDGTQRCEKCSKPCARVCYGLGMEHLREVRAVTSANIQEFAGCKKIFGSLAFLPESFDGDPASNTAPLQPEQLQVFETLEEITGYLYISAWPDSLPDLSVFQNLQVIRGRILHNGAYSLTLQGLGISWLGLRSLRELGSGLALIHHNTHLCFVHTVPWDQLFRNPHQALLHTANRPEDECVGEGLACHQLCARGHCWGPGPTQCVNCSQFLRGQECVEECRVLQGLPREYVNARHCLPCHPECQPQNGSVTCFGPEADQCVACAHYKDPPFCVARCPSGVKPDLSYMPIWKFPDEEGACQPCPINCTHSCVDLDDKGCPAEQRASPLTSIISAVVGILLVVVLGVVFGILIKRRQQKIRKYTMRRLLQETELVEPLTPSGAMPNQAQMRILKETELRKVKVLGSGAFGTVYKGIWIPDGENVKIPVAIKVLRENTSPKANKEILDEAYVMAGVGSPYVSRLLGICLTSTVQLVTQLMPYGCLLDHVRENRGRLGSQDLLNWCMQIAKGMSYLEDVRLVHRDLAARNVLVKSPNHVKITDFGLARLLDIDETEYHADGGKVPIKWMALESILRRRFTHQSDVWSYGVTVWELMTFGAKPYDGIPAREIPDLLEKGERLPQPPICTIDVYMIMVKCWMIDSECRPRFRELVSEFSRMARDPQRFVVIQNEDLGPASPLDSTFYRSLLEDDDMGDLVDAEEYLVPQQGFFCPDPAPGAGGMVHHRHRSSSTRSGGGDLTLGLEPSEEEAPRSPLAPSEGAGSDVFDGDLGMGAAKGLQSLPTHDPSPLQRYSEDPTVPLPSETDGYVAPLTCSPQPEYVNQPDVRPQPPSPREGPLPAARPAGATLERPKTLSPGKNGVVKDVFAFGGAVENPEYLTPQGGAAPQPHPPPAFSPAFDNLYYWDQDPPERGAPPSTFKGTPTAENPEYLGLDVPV

[4] = system: BT474 cells implanted in the mammary fat pad; assay: Tumor growth in orthotopic BT474 xenograft in immunodeficient mice; assay type: in vivo; conditions: for Tumor size increase between day 19 and day 40: 5 days a week, vehicle 172%
Description: Experiments were done as already described on the TrGET platform of centre de Recherche de Cancérologie de Marseille (Institut Paoli Calmettes, Marseille, France) in accordance with the guidelines of the Institut National de la Santé et de la Recherche Médicale. The study was approved by the Animal Experimentation Ethics Committee of Marseille (APAFIS#2079‐2015092811101360 v3). Briefly, 7‐to‐8‐week‐old female NOD.Cg‐Prkdc scid/J (NSG) mice were purchased from Charles River France or bred in‐house and maintained on a 12‐h light and 12‐h dark cycle, under specific pathogen‐free conditions with sterilized food and water provided ad libitum. The initial body weight of the animals at the time of arrival was between 19 and 24 g. Mice were allowed to acclimatize to local conditions for 1 week before being injected with tumor cells. 5 × 10^6 BT474 cells resuspended in 100 μL (50% matrigel and 50% PBS) were implanted orthotopically in the mammary fat pad of NSG mice anesthetized with ketamine and xylazine and administered with the nonsteroidal anti‐inflammatory drug metacam (SC, 1 mg·kg^−1). Estradiol pellets were implanted subcutaneously. Metacam was administered 24 and 48 h postimplantation. Nineteen days after implantation, mice were randomized into […] to be administered intraperitoneally during 3 weeks with vehicle (10% DMSO in PBS, twice a day, 5 days a week, n = 8), 3 mg·kg^−1 ebselen oxide (twice a day, 5 days a week, n = 8), or […] ebselen oxide (twice a day, 5 days a week, n = 8). Mice weight and tumor volume were assessed 2–3 times a week using a caliper. At the end of the experiment, the collected tumors were photographed, weighed, and cut into halves to be embedded in OCT for immunohistofluorescence analysis or frozen in liquid nitrogen for western blot analysis.
The collected tumors embedded in OCT were cut into 5 μm thick sections and immobilized on superfrost™ plus microscope slides. Sections were fixed in 4% paraformaldehyde for 10 min at room temperature, washed three times in PBS, permeabilized for 10 min in PBS containing 0.1% Triton X100, washed with PBS, blocked for 30 min in PBS containing 3% BSA and incubated 1 h at room temperature with primary antibodies [Monoclonal anti‐HER2 (clone Cle2‐4001 and 3B5, IF‐1 : 100) or polyclonal anti‐KI67 (ref PA5‐16785, IF‐1 : 200)]. Sections were again washed three times in PBS and incubated 1 h at room temperature with fluorescence‐conjugated secondary antibodies from Jackson Immunoresearch Laboratories. After mounting, samples were scanned using a Lamina multilabel slide scanner (PerkinElmer). The proliferative index (mean percentage of Ki67‐positive nuclei) was quantified on 10 regions (area 0.2 mm^2) per slide (vehicle, n = 7; ebselen oxide n = 5) using IMAGEJ software.
We then explored the potential of ebselen oxide to reduce the growth of HER2‐overexpressing tumors in vivo. Nineteen days after orthotopic implantation of BT474 cells in the mammary fat pad of immunodeficient […] mice, mice received 3 or 5 mg·kg^−1 ebselen oxide, intraperitoneally (once or twice a day, as indicated, 5 days a week) or vehicle as a control. […] Conversely, in animals treated with 5 mg·kg^−1 ebselen oxide, it increased only by 44% in mice treated with 5 mg·kg^−1 ebselen oxide, corresponding to a significant growth inhibition index of 75% at day 40 (Fig. 5C–E). […] Of note, there was an excellent correlation between tumor volume and tumor weight (R ^2 = 0.9611, Fig. 5H). […] We next analyzed biochemically the intratumoral level of activated HER2 and downstream signaling in vehicle‐ and 5 mg·kg^−1 ebselen oxide‐treated mice.

With `O=C1c2ccccc2[Se](=O)N1c1ccccc1` (stereo not shown) [Ebselen oxide, ebselen oxide] the “Reduction in the size of micro-colonies” value (BT474 [1]) was over 50%, the inhibition at 10 µM (BT474 [2]) was 30% and the “Reduction of proliferation rate” value (SKBR3) was 35%. For the same compound, the “Effect on HER2 activation” value [3] was “no effect”, the “Tumor size increase between day 19 and day 40” value ([4]; 3 mg·kg−1 i.p.) was 112% and the “Reduction in tumor size and weight compared to vehicle” value ([4]; 3 mg·kg−1 i.p., day 40) was “only a little reduction”. The “Drop of tumor proliferation index (Ki67) vs vehicle” value ([4]; 5 mg·kg−1, immunofluorescence on tumor sections) was 32%, the “Decrease of HER2 activation in tumor lysates vs vehicle” value ([4]; 5 mg·kg−1, western blot) was 30% and the “Inhibition of Akt activation in tumor lysates” value ([4]; 5 mg·kg−1, western blot) was 50%. For the same compound, the “Inhibition of ERK activation in tumor lysates” value ([4]; 5 mg·kg−1, western blot) was 45%, the “Tumor size increase between day 19 and day 40” value ([4]; 5 mg·kg−1 i.p.) was 44% and the Growth inhibition index ([4]; 5 mg·kg−1 i.p., day 40) was 75%. For the same compound, the “Drop in tumor weight compared to vehicle-treated group” value ([4]; 5 mg·kg−1 i.p., tumors collected at day 40) was 40%, the “Mice body weight after day 30” value ([4]; 3 and 5 mg·kg−1, recovered after reduction from two to one injection per day) was “decrease of mice body weight” and the “Tolerability (mice body weight)” value ([4]; 3 and 5 mg·kg−1 i.p. twice a day) was “well‐tolerated until day 30”. The “Decrease in the mammary tumor volume (discussion)” value ([4]; mouse model, ebselen oxide administration) was 40%.
